Assay results taken from PMC12123366, “Effect of urea and squaramide IMPDH inhibitors on C. parvum: in vitro trial design impacts the assessment of drug efficacy” (International Journal for Parasitology: Drugs and Drug …, 2025).
Like-named read-outs stand apart in the source and are kept apart here.

Tests used:
[1] = tested on: C. parvum; assay: Inhibition of C. parvum replication in infected HCT-8 cells, parasite quantification by qPCR; type: cell-based, Cryptosporidium parvum (Iowa strain) in human HCT-8 cells; settings: for inhibition at 10 µM / IC50: Cryptosporidium parvum, HCT-8; for inhibition at 10 µM: added at start of infection (T0), 48 hpi, mean ± SD (n = 3 wells), read-out: inhibition rate of C. parvum replication; for inhibition at 10 µM / anti-cryptosporidial activity (in words): 10 μM; for anti-cryptosporidial activity (in words): added at T0, 48 hpi
Description: (§1) HCT-8 cell lines (Human ileocecal adenocarcinoma) were purchased from The European Collection of Authenticated Cell Cultures (ECACC) under catalogue number No 90032006) and maintained with regular subculturing in a growth medium consisting in a RPMI 1640 medium supplemented with 1 mM sodium pyruvate, 2 mM l-glutamine, 10 % (vol/vol) of heat-inactivated fetal calf serum, 100 U/mL of penicillin and 100 μg/mL of streptomycin. Cells were grown in an incubator at 37 °C with 5 % (vol/vol) CO2 until monolayers reached 80–90 % confluency. Cells were cultivated in 96-well format plate for molecular analysis and in Lab-Tek™ Chamber Slides for microscopic analysis. 50,000 cells were seeded and incubated during 24 h (until confluency) before infection.
(§2) C. parvum oocysts of “Iowa” strain was purchased from Waterborne Inc. and stored in PBS at 4 °C. A ratio of one oocyst per cell was used to infect HCT-8 cell. Oocysts suspension was incubated with 10 % of a solution (vol/vol) containing 0.5 % sodium hypochlorite for 10 min at 4 °C. After a washing step by centrifugation at 1800g for 15 min at 4 °C, oocysts were incubated in acidified water (pH 2.4) containing 0.025 % (wt/vol) of trypsin, at 37 °C for 20 min, to trigger excystation (infectivity assay developed by [Keegan et al., 2003]). After a third centrifugation step at 1800 g for 10 min, oocysts were suspended in a maintenance medium. The maintenance medium consisted of RPMI 1640 medium with 2 mM l-glutamine, 5 mM glucose, 0.5 μM folic acid, 7 μM 4-amino-benzoic acid, 0.1 μM calcium pantothenate, 50 nM ascorbic acid, 2 % (vol/vol) heat inactivated fetal calf serum and 100 U/mL of streptomycin/penicillin. Before oocyst inoculation, the growth medium was switched with maintenance medium. Triggered oocysts were finally added on monolayers and incubated during 48 h at 37 °C in a 5 % (vol/vol) CO2 atmosphere.
(§3) The compounds (2 mg/mL in DMSO) were diluted to 500 μM and serially diluted in maintenance medium. The cytotoxicity of the compounds was assessed using the CytoTox 96® Non-Radioactive Cytotoxicity Assay (Promega, G1790) in accordance with the manufacturer's protocol.
The COWP gene (GenBank no. AF248743) was amplified by qPCR following the previously described protocol ([Guy et al., 2003]), and the parasitic concentration was determined using the standard range of C. parvum oocyst concentrations. Briefly, serial dilutions from a pure C. parvum oocyst suspension were made starting from a stock solution of 5 × 10^7 oocysts (4 × 10^5 – 2 × 10^5 – 1 × 10^5 – […]–2.5 × 10^3–1.25 × 10^3 oocysts) and the standard curve for quantifying parasites was created to obtain a correlation between Cq values and the Log of concentration.
At the end of the experiment, supernatants from the C. parvum-infected cell cultures were collected. The cell layers were then washed (1x PBS), detached using trypsin (0.25 %), and centrifuged (10,000×g, 10 min). The resulting cell pellet was re-suspended in 150–200 μL of sterile 1x PBS and stored at −20 °C for later DNA extraction. DNA extraction of C. parvum was performed using the Purelink™ Microbiome Purification Kit (Invitrogen™) following the manufacturer's protocol “Transport Media and Microbial Culture Samples” ([Invitrogen, 2015]).
FRePCR reactions were formulated to a volume of 25 μL and comprised of 1.25 μL of primers (10 μM), 0.05 μL probe (100 μM), 12.5 μL Master Mix 2X, LightCycler 480 Probes Master (ref. 04707494001, Roche), 4.95 μL H2O nuclease-free and 5 μL of DNA template. Quantitative PCR was run on a CFX96 real time PCR system (BioRad) with an initial step of activation (10 min 95 °C) following by 40 cycles with cycling conditions as follows: 95 °C for 10 s, 60 °C for 1 min. BioRad CFX manager software was used to analyse the data. Samples were considered negative if Cq ≥ 40.
A common way of defining a 50 % response is to use a mathematical model like the 4-parameter logistic model (4 PL) ([Sebaugh, 2011]). […]

[2] = CytoTox 96 Non-Radioactive Cytotoxicity Assay; type: cell-based, Human; settings: human; HCT-8 cells, 10 µM
Description: as §1, §3
(§4) An initial screening experiment was conducted on the full library to evaluate the cytotoxicity effects on HCT-8 cells. Nitrophenylurea 12 was identified as being cytotoxic so was not progressed further (See Supporting Information). In total, 21 candidates were assessed for their ability to inhibit C. parvum replication at a concentration of 10 μM. Each compound was added at the start of the infection of HCT-8 cells (T0) and remained in the culture for 48 h post infection (hpi). Parasitic quantification was then performed using a molecular method (qPCR). Of the 21 compounds tested, nine were effective inhibitors, reducing parasite proliferation by 80 % or more (Fig. 6). A clear trend emerged with all of the benzyl-substituted ureas 6–10 displaying poor inhibitory activity, regardless of the attached heteroaryl substituent. […] Two exceptions to this were imidazole-containing analogues 18 and 19. […] Among the squaramide series, the results were highly dependent on the nature of the substituent, ranging from high (e.g. ketone 29, furan 32), medium (e.g. 3-pyrazole 30) to low (e.g. 4-pyrazole 31) anti-cryptosporidial activity.

[3] = tested on: HCT-8 cells; assay: CytoTox 96 Non-Radioactive Cytotoxicity Assay; type: cell-based, Human; settings: 10 µM
Description: as §1, §3, §4

[4] = tested on: C. parvum; assay: Quantification of C. parvum development in HCT-8 cells by immunofluorescence microscopy; type: cell-based, Cryptosporidium parvum (Iowa strain) in human HCT-8 cells; settings: for effect on distribution of parasite area: 7.5 μM or 15 μM, added at 30 hpi until 48 hpi; for reduction in parasite quantification: 7.5 μM, added at 30 hpi, until 48 hpi, fluorescence microscopy
Description: as §1, §2
After aspiration of the supernatant from the Nunc™ Lab-Tek™ Chamber slide wells, cells were rinsed with PBS 1X. A fixation step was then performed using methanol during 8 min at 4 °C. Cryptosporidium developmental forms were labelled with a polyclonal IgG antibodies reaction kit tagged with Cy3 (Sporo-Glo™, Waterborne Inc.) and oocysts were labelled with FL-Crypt-a-Glo™, a fluorescein-labelled mouse monoclonal antibody made to oocyst outer wall antigenic sites (epitopes) of C. parvum. Antibodies were 1/20th diluted and incubated on cells for 1 h at room temperature. DNA was labelled with Hoechst for 5 min at room temperature. Slides were then coverslipped with a no fading mounting medium (Waterborne Inc.) and observed with a Leica DMi8 microscope. Each dilution was performed in triplicate and, for each well, ten images were taken at 400× magnification. Parasite quantification was carried out automatically using the StarDist neural network, which was specifically trained to detect and quantify C. parvum parasites.
To confirm our initial findings, we employed an alternative method using immunofluorescence microscopy to quantify C. parvum development in the presence of inhibitors (Fig. S1). […] The results corroborated our initial screening data, confirming the high efficacy of all tested chloronitrophenyl urea analogues, except for imidazole derivatives 18 and 19.
To test this hypothesis, increasing concentrations of squaramide 32 (i.e. 0, 2, 4 and 8 μM) were applied at different infection times: at 0 hpi (hours post infection), to assess the impact on parasite invasion; at 4 hpi, to examine the effect on the early stages of intracellular development; and at 30 hpi, to evaluate the influence on late stage intracellular development. The microscopic images in Fig. 7 illustrate the effect of 32 when applied at the onset of infection and at 30 hpi. Using fluorescent antibodies, the intracellular development of C. parvum is highlighted by green fluorescence, which allows for quantification of the number of parasites per image.

[5] = compounds at 0, 3, 6 and 9 μM added at t0 and left until 48 hpi, qPCR, read-out: IC50

| SMILES | inhibition at 10 µM ([1]; qPCR) | IC50 [1, 5] | viability at 10 µM [2] | also measured |
| --- | --- | --- | --- | --- |
| CCOC(=O)n1ccc(-c2cccc(C(C)(C)NC(=O)Nc3ccc(Cl)c([N+](=O)[O-])c3)c2)n1 [Compound 13] | 87.5 ± 6.4% | 5.44 µM | 97.2% |  |
| CC(C)(NC(=O)Nc1ccc(Cl)c([N+](=O)[O-])c1)c1cccc(-c2cc[nH]n2)c1 [Compound 14] | 85.1 ± 3.8% | 6.19 µM | 97.6% |  |
| CC(C)(NC(=O)Nc1ccc(Cl)c([N+](=O)[O-])c1)c1cccc(-c2ccco2)c1 [Compound 21] | 64 ± 1% | 6.19 µM | 98.3% |  |
| CC(C)(Nc1c(Nc2ccc(Cl)c([N+](=O)[O-])c2)c(=O)c1=O)c1cccc(-c2cc[nH]n2)c1 [Compound 30, 3-((2-(3-(1H-Pyrazol-3-yl)phenyl)propan-2-yl)amino)-4-((4-chloro-3-nitrophenyl)amino)cyclobut-3-ene-1,2-dione] |  |  | 98.2% | anti-cryptosporidial activity (in words) ([1]; qPCR): medium |
| CC(C)(NC(=O)Nc1ccc(Cl)c([N+](=O)[O-])c1)c1cccc(-c2cccs2)c1 [Compound 22] | 86.6 ± 2.6% | 3.77 µM | 98.5% |  |
| CC(C)(NC(=O)Nc1ccc(Cl)c([N+](=O)[O-])c1)c1cccc(-c2c[nH]cn2)c1 [Compound 19] | ≤ 50% |  | 97.4% |  |
| CC(C)(Nc1c(Nc2ccc(Cl)c([N+](=O)[O-])c2)c(=O)c1=O)c1cccc(-c2cn[nH]c2)c1 [Compound 31, (3-((2-(3-(1H-Pyrazol-4-yl)phenyl)propan-2-yl)amino)-2-((4-chloro-3-nitrophenyl)amino)-4-oxocyclobut-2-en-1-ylidene)oxonium] |  |  |  | anti-cryptosporidial activity (in words) ([1]; qPCR): low; Viability [3]: 96.97% |
| CC(C)(NC(=O)NCc1ccccc1)c1cccc(-c2cn[nH]c2)c1 [Compound 7] |  |  | 96.7% |  |
| CC(C)(NC(=O)Nc1ccc(Cl)c([N+](=O)[O-])c1)c1cccc(-c2nccs2)c1 [Compound 20] | 85.7 ± 2.2% | 4.51 µM | 98.4% |  |
| CC(C)(NC(=O)NCc1ccccc1)c1cccc(-c2ccccc2)c1 [Compound 10] |  |  | 97.4% |  |
| CC(C)(NC(=O)Nc1ccc(Cl)c([N+](=O)[O-])c1)c1cccc(-c2cccnc2F)c1 [Compound 24] | 83.4 ± 1.5% | 3.64 µM | 96.8% | effect on distribution of parasite area [4]: dose-dependent effect; reduction in parasite quantification [4]: 10.5% |
| CCOc1ncccc1-c1cccc(C(C)(C)NC(=O)Nc2ccc(Cl)c([N+](=O)[O-])c2)c1 [Compound 23] | 88 ± 3.5% | 3.23 µM | 94.1% | effect on distribution of parasite area [4]: successfully inhibits larger parasites; reduction in parasite quantification [4]: 32% |
| CC(C)(NC(=O)NCc1ccccc1)c1cccc(-c2cccs2)c1 [Compound 9] |  |  | 95.4% |  |
| NC[C@@H]1O[C@H](O[C@H]2[C@@H](O)[C@H](O[C@@H]3[C@@H](O)[C@H](N)C[C@H](N)[C@H]3O[C@H]3O[C@H](CO)[C@@H](O)[C@H](O)[C@H]3N)O[C@@H]2CO)[C@H](N)[C@@H](O)[C@@H]1O [Paromomycin, reference compound] |  |  |  | IC50 ([1]; previous experimentation based on qPCR, standard Cryptosporidium inhibitor in in vitro assays, read-out: mean IC50): 511 µM |
| CC(C)(NC(=O)Nc1ccc(Cl)c([N+](=O)[O-])c1)c1cccc(-c2cn(C(c3ccccc3)(c3ccccc3)c3ccccc3)cn2)c1 [Compound 18] | ≤ 50% |  | 97.3% |  |
| CCOC(=O)n1cc(-c2cccc(C(C)(C)NC(=O)Nc3ccc(Cl)c([N+](=O)[O-])c3)c2)cn1 [Compound 15] | 71.7 ± 1.5% | 5.98 µM | 97.5% |  |
| CC(C)(NC(=O)Nc1ccc(Cl)c([N+](=O)[O-])c1)c1cccc(-c2cn[nH]c2)c1 [Compound 16] | 64.3 ± 3.9% | 5.32 µM | 96.4% |  |
| CC(=O)c1cccc(C(C)(C)Nc2c(Nc3ccc(Cl)c([N+](=O)[O-])c3)c(=O)c2=O)c1 [Compound 29, 3-((2-(3-acetylphenyl)propan-2-yl)amino)-4-((4-chloro-3-nitrophenyl)amino)cyclobut-3-ene-1,2-dione] | 87.7 ± 1.7% | 3.59 µM | 97.2% | anti-cryptosporidial activity (in words) ([1]; qPCR): high |
| CC(C)(NC(=O)Nc1ccc(Cl)c([N+](=O)[O-])c1)c1cccc(-c2nccn2Cc2ccccc2)c1 [Compound 17] | 88.2 ± 1.1% | 4.69 µM | 97.3% |  |
| CC(C)(NC(=O)NCc1ccccc1)c1cccc(-c2ccco2)c1 [Compound 8] |  |  | 95.9% |  |
| CC(C)(NC(=O)NCc1ccccc1)c1cccc(-c2cc[nH]n2)c1 [Compound 6] |  |  | 97% |  |
